Experimental data reported in US20230391796A1, “GLYCOSIDASE INHIBITORS AND USES THEREOF” (UNIVERSIDAD DE SEVILLA (US) -UNIVERSITY OF SEVILLE (US), priority 2020, published 2023).
Structures can show the parent of a compound that is named as a salt.

Target: β-N-acetylglucosaminidase (from jack bean)
Experiment: Inhibition assay against commercial β-N-acetylglucosaminidase (jack bean), p-nitrophenyl N-acetyl-β-D-glucosaminide substrate
Type: biochemical
Conditions: pH 5.5, 37° C.; average of three determinations ± s.e.m.; NI = no inhibition detected at 200 μM; read-out: Jack beans Hex
Method: Inhibition Assays Against Commercial β-N-acetylglucosaminidases
Inhibition constant (Ki) values were determined by spectrophotometrically measuring the residual hydrolytic activities of the glycosidases against p-nitrophenyl N-acetyl-β-D-glucosaminide. […] Each assay was performed in phosphate-citrate buffer and the reactions were initiated by addition of the enzyme to a solution of the substrate in the absence or presence of various inhibitor concentrations. The mixture was incubated for 10-30 min at 37° C. and the reaction was quenched by addition of 1 M Na2CO3. Reaction times were appropriate to obtain 10-20% conversion of the substrate in order to achieve linear rates. The absorbance of the resulting mixture was determined at 405 nm. Approximate values of Ki were determined using a fixed concentration of substrate (around the Km value for the different glycosidases) and various inhibitor concentrations. Full Ki determinations and enzyme inhibition mode were determined from the slope of Lineweaver-Burk plots and double reciprocal analysis using a Microsoft Office Excel 2007 program.

Row | SMILES | Ki
1 | CCC(=O)N[C@H]1CN2/C(=N/Cc3ccccc3)SC[C@@H]2[C@@H](O)[C@@H]1O [Compound 13, 2-Propanamido-5-N,6-S-(N′-benzyliminomethylidene)-1,2-dideoxy-6-thionojirimycin Hydrochloride] | > 200 µM
2 | CCC(=O)N[C@H]1CN2/C(=N/Cc3cccc4ccccc34)SC[C@@H]2[C@@H](O)[C@@H]1O [Compound 14, 2-Propionamido-5-N,6-S-(N′-1-naphthylmethyliminomethylidene)-1,2-dideoxy-6-thionojirimycin hydrochloride] | > 200 µM
3 | CCC(=O)N[C@H]1CN2/C(=N/Cc3ccc4[nH]ccc4c3)SC[C@@H]2[C@@H](O)[C@@H]1O [Compound 15, 2-Propionamido-5-N,6-S-(N′-5-indolylmethyliminomethylidene)-1,2-dideoxy-6-thionojirimycin hydrochloride] | > 200 µM
4 | CC(C)C(=O)N[C@H]1CN2/C(=N/Cc3ccccc3)SC[C@@H]2[C@@H](O)[C@@H]1O [Compound 16, 2-Isobutanamido-5-N,6-S-(N′-benzyliminomethylidene)-1,2-dideoxy-6-thionojirimycin Hydrochloride] | > 200 µM
5 | CCCC(=O)N[C@H]1CN2/C(=N/Cc3ccccc3)SC[C@@H]2[C@@H](O)[C@@H]1O [Compound 17, 2-Butanamido-5-N,6-S-(N′-benzyliminomethylidene)-1,2-dideoxy-6-thionojirimycin] | > 200 µM
6 | CCNC(=S)N[C@H]1CN2/C(=N/Cc3ccccc3)SC[C@@H]2[C@@H](O)[C@@H]1O [Compound 18, 2-Ethylthioureido-5-N,6-S-(N′-benzyliminomethylidene)-1,2-dideoxy-6-thionojirimycin] | > 200 µM
7 | CCCNC(=S)N[C@H]1CN2/C(=N/Cc3ccccc3)SC[C@@H]2[C@@H](O)[C@@H]1O [Compound 19, 2-Propylthioureido-5-N,6-S-(N′-benzyliminomethylidene)-1,2-dideoxy-6-thionojirimycin] | > 200 µM
